# Assay results published in PMC11243058, “Identification of Novel Isatin Derivative Bearing a Nitrofuran Moiety as Potent Multi-Isoform Aldehyde Dehydrogenase Inhibitor” (Molecules, 2024).
# Where two headings read alike, the source gives them in different places.
# Experiments:
# [1] = test system: SKOV-3, MiaPaCa-2, HCT-116, HEK-293, and FHC cell lines; assay: Cell viability assay (MTS), statements over the cell line panel; format: cell-based, human; details: for IC50: read-out: IC50 in cancer cell lines; for IC50 / cytotoxicity against the tested cell lines: range or statement over all tested cell lines
# Protocol: (§1) Five thousand cells/well were plated in 96-well plates in growth media and left for attachment for 24 h. The cells were then treated with the respective compounds using varying concentrations for 48 h. At the end of the treatment duration, a solution of MTS [3-(4,5-dimethylthiazol-2-yl)-5-(3-carboxymethoxyphenyl)-2-(4-sulfophenyl)-2H-tetrazolium] and an electron coupling reagent, PES (phenazine ethosulfate) (Promega, Madison, WI, USA) was added to the cells. Then, 15 μL of MTS reagent was added to each well, and the absorbance was assessed at 490 nm with a microplate reader (Dynex Technologies, MRX Revelation; Chantilly, VA, USA) after 1 h incubation with MTS. The data were recorded, and the IC50 value was calculated using non-linear curve regression analysis (Graph pad V8.0, CA, USA).
# HEK-293 = assay: Cell viability assay (MTS), HEK-293; format: cell-based; details: 48 h, mean ± SD
# Protocol: as §1
# HCT-116 = assay: Cell viability assay (MTS), HCT-116; format: cell-based, human; details: 48 h, mean ± SD
# Protocol: as §1
# MiaPaCa-2 = assay: Cell viability assay (MTS), MiaPaCa-2; format: cell-based, human; details: 48 h, mean ± SD
# Protocol: as §1
# FHC = assay: Cell viability assay (MTS), FHC; format: cell-based; details: normal fetal human cells, 48 h, mean ± SD
# Protocol: as §1
# SKOV-3 = assay: Cell viability assay (MTS), SKOV-3; format: cell-based, human; details: 48 h, mean ± SD
# Protocol: as §1
# ALDH3A1 = target: T1, ALDH3A1 (Homo sapiens, UniProt P30838); assay: ALDH isoform-specific enzyme inhibition assay, ALDH3A1; format: biochemical; details: Acetaldehyde (Substrate); for inhibition at 0.5 µM: 500 nM
# T1 construct: purchased R&D systems
# T1 sequence (P30838 1-453): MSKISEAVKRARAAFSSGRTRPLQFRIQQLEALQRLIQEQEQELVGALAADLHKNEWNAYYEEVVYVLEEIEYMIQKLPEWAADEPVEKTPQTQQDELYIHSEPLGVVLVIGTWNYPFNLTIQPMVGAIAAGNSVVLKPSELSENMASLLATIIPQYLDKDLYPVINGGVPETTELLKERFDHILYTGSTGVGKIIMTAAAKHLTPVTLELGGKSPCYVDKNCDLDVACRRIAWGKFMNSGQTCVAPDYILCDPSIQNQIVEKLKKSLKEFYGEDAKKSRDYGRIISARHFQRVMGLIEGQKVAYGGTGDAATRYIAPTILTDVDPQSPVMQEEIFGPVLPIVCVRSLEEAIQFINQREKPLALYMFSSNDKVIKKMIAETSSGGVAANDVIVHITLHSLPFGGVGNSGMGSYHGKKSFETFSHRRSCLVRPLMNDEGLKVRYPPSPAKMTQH
# Protocol: (§2) ALDH1A1, ALDH3A1, and ALDH1A3 enzyme inhibition assays were performed as reported previously. Briefly, 500 ng/100 uL of ALDH1A1, ALDH3A1, and ALDH1A3 were treated with 500 nM concentration of the tested compounds and incubated for 15 min followed by the addition of reaction mixture (substrate + Substrate mixture). […] The absorbance was measured at 450 nm. [Absorbance Control–Absorbance treated/Absorbance Control]100 was used to compute the percentage of inhibition.
# ALDH1A1 = target: T2, ALDH1A1 (Homo sapiens, UniProt P00352); assay: ALDH isoform-specific enzyme inhibition assay, ALDH1A1; format: biochemical; details: Acetaldehyde (Substrate); for inhibition at 0.5 µM: 500 nM
# T2 construct: purchased R&D systems
# T2 sequence (P00352 1-501): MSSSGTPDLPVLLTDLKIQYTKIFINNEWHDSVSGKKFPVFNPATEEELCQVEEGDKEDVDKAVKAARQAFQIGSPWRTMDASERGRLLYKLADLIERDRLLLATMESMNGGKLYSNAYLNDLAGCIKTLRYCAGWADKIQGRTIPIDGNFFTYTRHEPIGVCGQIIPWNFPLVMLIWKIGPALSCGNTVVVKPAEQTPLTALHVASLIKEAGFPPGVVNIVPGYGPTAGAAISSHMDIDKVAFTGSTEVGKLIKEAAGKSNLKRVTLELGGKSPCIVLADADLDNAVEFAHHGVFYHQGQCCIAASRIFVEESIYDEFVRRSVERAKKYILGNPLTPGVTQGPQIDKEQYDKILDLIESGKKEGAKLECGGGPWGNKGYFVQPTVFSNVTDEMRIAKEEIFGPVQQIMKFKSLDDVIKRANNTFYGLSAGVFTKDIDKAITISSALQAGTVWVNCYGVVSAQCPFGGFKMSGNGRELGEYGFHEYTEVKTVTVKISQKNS
# Protocol: as §2
# [2] = Homo sapiens, Pancreatic cancer cell, 48 h
# [3] = HEK293, human embryonic kidney cells
# [4] = Homo sapiens, HCT-116, colon cancer cells
# [5] = Homo sapiens, MIA PaCa-2, pancreatic cancer cells
# [6] = Homo sapiens, SK-OV-3, ovarian cancer cells
# [7] = Homo sapiens, Pancreatic cancer cell, ovarian, colon, and pancreatic cancer cells, 48 h MTS
Compound,melting point [°C],"IC50 [1, 2] [µM]",IC50 (HEK-293; [3]) [µM],IC50 (HCT-116; [4]) [µM],IC50 (MiaPaCa-2; [5]) [µM],IC50 (FHC; FHC) [µM],IC50 (SKOV-3; [6]) [µM],IC50 / cytotoxicity against the tested cell lines ([1]; 48 h MTS),inhibition at 0.5 µM (ALDH3A1) [%],inhibition at 0.5 µM (ALDH1A1) [%],"IC50 [1, 7] [µM]","IC50 ([1]; ovarian, colon, and pancreatic cancer cells, 48 h MTS) [µM]",IC50 (HEK-293; human embryonic kidney cells) [µM],% Enzyme Inhibition at 500 nM ALDH3A1 (ALDH3A1) [%],% Enzyme Inhibition at 500 nM ALDH1A1 (ALDH1A1) [%],IC50 (HCT-116; colon cancer cells) [µM],IC50 (MiaPaCa-2; pancreatic cancer cells) [µM],IC50 (FHC) [µM],IC50 (SKOV-3; ovarian cancer cells) [µM]
"Br.C=CCNC(=N)SCc1ccc(Cn2ncc3cc(C(F)(F)F)ccc32)cc1 [Compound 10, 4-((5-(Trifluoromethyl)-1H-indazol-1-yl)methyl)benzyl allylcarbamimidothioate hydrobromide]",104 to 106,> 50,> 50,> 50,48.4 ± 3.2,> 50,> 50,,,,,,,,,,,,
"Br.COc1ccc2c(c1)C(=O)C(=O)N2Cc1ccc(CSC(=N)N)cc1 [Compound 6, 4-((5-Methoxy-2,3-dioxoindolin-1-yl)methyl)benzyl carbamimidothioate hydrobromide]",214 to 216,,> 50,> 50,> 50,> 50,45 ± 2.5,inert,,,,,,,,,,,
"Br.C=CCNC(=N)SCc1ccc(CN2C(=O)C(=O)c3cc(C(F)(F)F)ccc32)cc1 [Compound 7, 4-((2,3-Dioxo-5-(trifluoromethyl)indolin-1-yl)methyl)benzyl allylcarbamimidothioate hydrobromide]",122 to 124,,9.7 ± 1.1,12 ± 3.1,10.3 ± 2.4,8.1 ± 0.8,9.1 ± 1.3,less cytotoxic than KS100,,,,,,,,,,,
"Br.N=C(N)SCc1ccc(Cn2ncc3cccc(C(F)(F)F)c32)cc1 [Compound 14, 4-((7-(Trifluoromethyl)-1H-indazol-1-yl)methyl)benzyl carbamimidothioate hydrobromide]",206 to 208,,17.7 ± 3.7,14.2 ± 2.3,12.3 ± 2.7,29.3 ± 4.9,16.8 ± 3.5,,,,,,,,,,,,
"CN(C)CCC(=O)c1ccc(Cn2nc(Br)c3cc(C(F)(F)F)ccc32)cc1.Cl [Compound 21, 1-(4-((3-Bromo-5-(trifluoromethyl)-1H-indazol-1-yl)methyl)phenyl)-3-(dimethylamino)propan-1-one hydrochloride]",171 to 173,> 50,> 50,> 50,> 50,> 50,> 50,,,,,,,,,,,,
"O=Cc1ccc(CN2C(=O)C(=O)c3cc(Br)cc(Br)c32)cc1 [Compound 5, 4-((5,7-Dibromo-2,3-dioxoindolin-1-yl)methyl)benzaldehyde]",205 to 207,,7.5 ± 1.8,8.8 ± 2.3,5.4 ± 0.9,12.9 ± 3.3,8.2 ± 1.1,less cytotoxic than KS100,39.58 ± 0.05,24.82 ± 0.01,,,,,,,,,
"COC(=O)/C=C/c1ccc(Cn2cc3cc(C(F)(F)F)ccc3n2)cc1 [Compound 9, Methyl (E)-3-(4-((5-(trifluoromethyl)-2H-indazol-2-yl)methyl)phenyl)acrylate]",,,> 50,> 50,> 50,> 50,> 50,,,,> 50,,,,,,,,
"Br.COc1ccc2c(c1)c(Br)nn2Cc1ccc(CSC(=N)N)cc1 [Compound 18, 4-((3-Bromo-5-methoxy-1H-indazol-1-yl)methyl)benzyl carbamimidothioate hydrobromide]",171 to 173,> 50,> 50,39.2 ± 3.9,44.6 ± 3.7,> 50,42.2 ± 5.8,,,,,,,,,,,,
"O=C(OCc1ccc(CN2C(=O)C(=O)c3cc(Br)cc(Br)c32)cc1)c1ccco1 [Compound 4, 4-((5,7-Dibromo-2,3-dioxoindolin-1-yl)methyl)benzyl furan-2-carboxylate]",132 to 134,,5.3 ± 1.4,6.1 ± 1.2,7.1 ± 0.8,6.7 ± 1.9,7.2 ± 1.3,,22.82 ± 0.05,28.26 ± 0.01,,,,,,,,,
"O=Cc1ccc(Cn2nc(Br)c3cc(C(F)(F)F)ccc32)cc1 [Compound 20, 4-((3-Bromo-5-(trifluoromethyl)-1H-indazol-1-yl)methyl)benzaldehyde]",,,> 50,> 50,> 50,> 50,> 50,,,,> 50,,,,,,,,
"Br.C=CCNC(=N)SCc1ccc(Cn2cc3cc(C(F)(F)F)ccc3n2)cc1 [Compound 11, 4-((5-(Trifluoromethyl)-2H-indazol-2-yl)methyl)benzyl allylcarbamimidothioate hydrobromide]",105 to 107,> 50,> 50,> 50,> 50,> 50,> 50,,,,,,,,,,,,
"OCc1ccc(Cn2nc(Br)c3cc(C(F)(F)F)ccc32)cc1 [Compound 19, (4-((3-Bromo-5-(trifluoromethyl)-1H-indazol-1-yl)methyl)phenyl)methanol]",,,> 50,> 50,> 50,> 50,> 50,,,,> 50,,,,,,,,
"COC(=O)/C=C/c1ccc(Cn2ncc3cc(C(F)(F)F)ccc32)cc1 [Compound 8, Methyl (E)-3-(4-((5-(trifluoromethyl)-1H-indazol-1-yl)methyl)phenyl)acrylate]",,,> 50,> 50,> 50,> 50,> 50,,,,> 50,,,,,,,,
4-((5-(Trifluoromethyl)-1H-indazol-1-yl)methyl)benzylcarbamimidothioate hydrobromide [Compound 12],,,,,,,,,,,,4.7 to 33,4.7 ± 1.1,−14.03 ± 0.06,10.01 ± 0.01,5.5 ± 0.1,4.7 ± 0.4,3.1 ± 0.8,8.2 ± 2.7
"Br.N=C(N)SCc1ccc(Cn2cc3cc(C(F)(F)F)ccc3n2)cc1 [Compound 13, 4-((5-(Trifluoromethyl)-2H-indazol-2-yl)methyl)benzyl carbamimidothioate hydrobromide]",181 to 183,4.7 to 33,18.9 ± 5.1,18.2 ± 3.1,33.2 ± 4.4,14.4 ± 2.3,22.7 ± 2.3,,,,,,,,,,,,
"Br.N=C(N)SCc1ccc(Cn2cc3cccc(C(F)(F)F)c3n2)cc1 [Compound 15, 4-((7-(Trifluoromethyl)-2H-indazol-2-yl)methyl)benzyl carbamimidothioate hydrobromide]",195 to 197,> 50,> 50,> 50,> 50,> 50,> 50,,,,,,,,,,,,
